Laboratory results from US10144715B2, “Piperazine derivatives as liver X receptor modulators” (priority 2014, dated 2018).
Read-outs that look alike come from different tables or passages of the source.

What was measured:
[1] = molecular target: T1, LXR β LBD protein (Homo sapiens (Human), UniProt P55055); assay: biochemical; assay type: biochemical; settings: for EC50: read-out: FRET LXRβ EC50
Procedure: (§1) Two μL of the DMSO solutions were transferred to the plate and 38 μL of 10 nM LXRα-LBD or LXRβ-LBD (2×) were added immediately to the wells. The plate was shaken for 5 min at rt on an orbital micro shaker (DPC MicroMix® 5), after which 40 μL of 200 nM fluorescein-SRC2-3 peptide and 20 nM Terbium-anti-GST-antibody (Cat# PV3550, Life Technologies, Grand Island, N.Y.) solution (4×) were added to all. The plate was sealed and shaken for 2 min at rt, and incubated at rt for 2 h without agitation. […] The delay and window times were set at 100 and 200 microseconds, respectively. […] The percent control vs. compound concentration data were fit into a four-parameter model, and EC50 values were calculated from the fit as the concentrations corresponding to the inflection points on the concentration-response curves.
Target sequence in this assay (P55055 222-460): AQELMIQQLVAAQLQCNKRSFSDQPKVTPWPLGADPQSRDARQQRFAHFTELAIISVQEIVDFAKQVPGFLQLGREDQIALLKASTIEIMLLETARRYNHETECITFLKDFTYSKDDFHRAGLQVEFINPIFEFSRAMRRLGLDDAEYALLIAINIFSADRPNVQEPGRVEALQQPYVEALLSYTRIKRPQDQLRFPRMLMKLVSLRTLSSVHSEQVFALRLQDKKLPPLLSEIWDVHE

[2] = molecular target: Gal4 DNA binding domain fused to the LBD of LXRα in HEK293 cells (Homo sapiens (Human), UniProt Q13133); assay: LXR luciferase transcriptional reporter gene assay, agonist mode, LXRα; assay type: cell-based; settings: for EC50: read-out: Cell LXRα EC50
[3] = molecular target: T2, LXR α LBD protein (Homo sapiens (Human), UniProt Q13133); assay: Human LXRα coactivator recruitment FRET assay, agonist mode; assay type: biochemical; settings: agonist mode
Procedure: as §1

[4] = molecular target: Gal4 DNA binding domain fused to the LBD of LXRβ in HEK293 cells (Homo sapiens (Human), UniProt P55055); assay: cell-based
[5] = molecular target: T2, LXR α LBD protein; assay: LXR α radioligand binding assay (SPA, competition with [3H]TO901317); settings: read-out: LXRα Binding Ki
[6] = molecular target: T1, LXR β LBD protein; assay: biochemical; assay type: binding; settings: read-out: LXRβ Binding Ki
Target sequence in this assay (P55055 222-460 limits assumed): as the sequence (P55055 222-460) above

[7] = agonist mode, read-out: Cell LXRβ EC50

Gal4 DNA binding domain fused to the LBD of LXRβ in HEK293 cells, sequence (P55055 222-460 limits assumed): as the sequence (P55055 222-460) above
T2 sequence (Q13133 209-447): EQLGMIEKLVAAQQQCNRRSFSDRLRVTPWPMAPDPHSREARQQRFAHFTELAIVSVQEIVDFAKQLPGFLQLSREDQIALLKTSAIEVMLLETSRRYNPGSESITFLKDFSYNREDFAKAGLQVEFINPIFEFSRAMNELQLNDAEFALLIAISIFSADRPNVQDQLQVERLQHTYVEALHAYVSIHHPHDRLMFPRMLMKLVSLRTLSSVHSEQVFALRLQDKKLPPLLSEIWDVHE
Gal4 DNA binding domain fused to the LBD of LXRα in HEK293 cells, sequence (Q13133 209-447): as above

| Molecule | FRET LXRβ efficacy ([1]; agonist mode) | EC50 ([1]; agonist mode) [µM] | EC50 [2] [µM] | EC50 [3] [µM] | FRET LXRα efficacy [3] [%] | EC50 [4, 7] [µM] | FRET LXRβ efficacy [1] | EC50 [1] [µM] | EC50 [4] [µM] | Cell LXRβ efficacy [4] | EC50 ([2]; agonist mode) [µM] | Cell LXRβ efficacy ([4]; agonist mode) | Ki [5] [µM] | Cell LXRα efficacy [2] | Ki [6] [µM] |
| --- | --- | --- | --- | --- | --- | --- | --- | --- | --- | --- | --- | --- | --- | --- | --- |
| CS(=O)(=O)c1cc(N2CCN(C[C@H]3CC[C@H](C(F)(F)F)CC3)[C@H](c3ccccc3)C2)ccc1C(N)=O (single isomer, unassigned) [17-36] | 79% | 1.18 | > 20 | 0.808 | 46 | > 20 | – | – | – | – | – | – | – | – | – |
| Cc1ccc(CN2CCN(c3cccc(S(C)(=O)=O)c3)C[C@H]2c2ccccc2)cc1 (single isomer, unassigned) [46-5] | – | – | > 20 | > 50 | – | – | 7159 (57) % | 7.16 | > 20 | – | – | – | – | – | – |
| CS(=O)(=O)c1cccc(N2CCN(Cc3ccc(OC(F)(F)F)cc3)[C@H](c3ccccc3)C2)c1 (single isomer, unassigned) [46-22] | – | – | > 20 | 4.62 | 42 | – | 1273 (73) % | 1.27 | 2.1 | 2095 (9) % | – | – | – | – | – |
| CS(=O)(=O)c1cccc(N2CCN(Cc3ccc(C(F)(F)F)c(F)c3)[C@H](c3ccccc3)C2)c1 (single isomer, unassigned) [46-25] | 17972 (116) % | – | – | > 50 | – | – | – | 18 | 2.56 | – | > 20 | 2557 (13) % | – | – | – |
| C[C@@]1(c2ccccc2)CN(c2cccc(S(C)(=O)=O)c2)CCN1Cc1ccc(C(F)(F)F)c(Cl)c1 (single isomer, unassigned) [46-35] | – | – | – | > 50 | – | – | – | > 50 | > 20 | – | > 20 | – | – | – | – |
| Cc1ccccc1[C@@H]1CN(c2cccc(S(C)(=O)=O)c2)CCN1Cc1ccc(C(F)(F)F)nc1 (single isomer, unassigned) [46-45] | 1524 (74) % | – | – | 6.57 | 43 | – | – | 1.52 | 7.52 | – | > 20 | 7516 (44) % | – | – | – |
| CS(=O)(=O)c1cccc(N2CCN(C[C@H]3CC[C@@H](C(F)(F)F)CC3)[C@H](c3ccccc3)C2)c1 (single isomer, unassigned) [48-30] | – | – | 4.51 | 12.9 | 55 | 1.63 | – | – | – | – | – | 28% | 2.54 | 4509 (17) % | – |
| CC(C)[C@@H]1CN(c2ccc(F)c(S(C)(=O)=O)c2)CCN1c1nccc(C2CC2)n1 [7-10, (R)-4-cyclopropyl-2-(4-(4-fluoro-3-(methylsulfonyl)phenyl)-2-isopropylpiperazin-1-yl)pyrimidine] | – | – | 0.586 | 0.292 | 55 | – | – | – | 0.095 | 95 (23) % | – | – | 0.236 | 586 (42) % | 0.013 |
| CC(C)[C@@H]1CN(c2ccc(F)c(S(C)(=O)=O)c2)CCN1c1nc2ccc(C#N)cc2s1 [7-53, (R)-2-(4-(4-fluoro-3-(methylsulfonyl)phenyl)-2-isopropylpiperazin-1-yl)benzo[d]thiazole-6-carbonitrile] | – | – | – | > 50 | – | – | – | – | 0.35 | – | 0.795 | 350 (26) % | 0.553 | 795 (40) % | 0.027 |
| CC(C)[C@@H]1CN(c2cccc(S(N)(=O)=O)c2)CCN1c1nccc(C(F)(F)F)n1 [7-60, (R)-3-(3-isopropyl-4-(4-(trifluoromethyl)pyrimidin-2-yl)piperazin-1-yl)benzenesulfonamide] | – | – | – | 0.084 | 97 | – | – | – | 0.059 | – | 0.248 | 59 (75) % | 0.873 | 248 (95) % | 0.146 |
| COC(=O)c1cnc(N2CCN(c3ccc(F)c(S(C)(=O)=O)c3)C[C@H]2C(C)C)nc1C(F)(F)F [9-2, methyl (R)-2-(4-(4-fluoro-3-(methylsulfonyl)phenyl)-2-isopropylpiperazin-1-yl)-4-(trifluoromethyl)pyrimidine-5-carboxylate] | – | – | – | – | – | – | 9 (91) % | 0.009 | 0.086 | 86 (34) % | 0.543 | – | 0.095 | 543 (54) % | 0.01 |
| CS(=O)(=O)c1cccc(N2CCN(Cc3ccc(C(F)(F)F)cn3)[C@H](c3ccccc3)C2)c1 [46-63, (R)-4-(3-(methylsulfonyl)phenyl)-2-phenyl-1-((5-(trifluoromethyl)pyridin-2-yl)methyl)piperazine] | 50% | 7.1 | – | – | – | – | – | – | > 20 | – | – | – | – | – | – |
| CS(=O)(=O)c1cccc(N2CCN(Cc3ccc(C(F)(F)F)cn3)[C@@H](c3ccccc3)C2)c1 [46-64, (S)-4-(3-(methylsulfonyl)phenyl)-2-phenyl-1-((5-(trifluoromethyl)pyridin-2-yl)methyl)piperazine] | 34% | 1.86 | – | – | – | – | – | – | 5.8 | – | – | 5804 (13) % | – | – | > 2.5 |
| CS(=O)(=O)c1cccc(N2CCN(Cc3ccc(C(F)(F)F)o3)[C@H](c3ccccc3)C2)c1 [46-65, (R)-4-(3-(methylsulfonyl)phenyl)-2-phenyl-1-((5-(trifluoromethyl)furan-2-yl)methyl)piperazine] | 25% | 5.77 | – | – | – | – | – | – | > 20 | – | – | – | – | – | – |
| CS(=O)(=O)c1cccc(N2CCN(Cc3ccc(C(F)(F)F)o3)[C@@H](c3ccccc3)C2)c1 [46-66, (S)-4-(3-(methylsulfonyl)phenyl)-2-phenyl-1-((5-(trifluoromethyl)furan-2-yl)methyl)piperazine] | – | > 50 | – | – | – | – | – | – | > 20 | – | – | – | – | – | 0.207 |
| CS(=O)(=O)c1cccc(N2CCN(CC3CCC(F)(F)CC3)[C@@H](c3ccccc3)C2)c1 [48-13, (S)-1-((4,4-difluorocyclohexyl)methyl)-4-(3-(methylsulfonyl)phenyl)-2-phenylpiperazine] | – | – | – | 0.632 | 23 | – | – | – | – | – | 2.62 | – | 0.867 | 2624 (20) % | – |
| CC(C)[C@@H]1CN(c2cccc(S(C)(=O)=O)c2)CCN1c1ncc(C2CC2)cn1 [Cpd No 7-5, (R)-5-cyclopropyl-2-(2-isopropyl-4-(3-(methylsulfonyl)phenyl)piperazin-1-yl)pyrimidine] | – | – | 0.501 | 0.313 | 60 | – | – | – | 0.093 | 93 (32) % | – | – | 0.346 | 501 (64) % | 0.026 |
| CS(=O)(=O)c1cccc(N2CCN(Cc3ccc(C(F)(F)F)c(Cl)c3)[C@@H](Cc3ccccc3)C2)c1 [Cpd No 45-1, (S)-2-benzyl-1-(3-chloro-4-(trifluoromethyl)benzyl)-4-(3-(methylsulfonyl)phenyl)piperazine] | – | – | 3.62 | – | 39 | – | – | – | – | – | – | – | – | 3618 (61) % | – |
| CC1(C)CCC(CN2CCN(c3cccc(S(C)(=O)=O)c3)C[C@H]2c2ccccc2)CC1 [Cpd No 48-3, (R)-1-((4,4-dimethylcyclohexyl)methyl)-4-(3-(methylsulfonyl)phenyl)-2-phenylpiperazine] | – | – | 4.27 | 5.19 | 31 | – | – | – | – | – | – | – | 2.34 | 4273 (20) % | – |
| tert-butyl (S)-2-isobutyl-4-(3-(methylsulfonyl)phenyl)piperazine-1-carboxylate [1-2] | – | – | 9.22 | 6.81 | 55 | – | – | – | – | – | – | – | – | 9219 (6) % | – |
